Structures are written as SMILES. Like-named read-outs stand apart in the source and are kept apart here.

As a reminder, the DC50 is the concentration giving 50% degradation. Broadly, the Dmax is the greatest extent of degradation seen.

This test concerns the target T1, Androgen Receptor (Homo sapiens, UniProt P10275).
T1 construct: endogenous in cells; host or cells: VCaP cells
T1 sequence (P10275 1-920): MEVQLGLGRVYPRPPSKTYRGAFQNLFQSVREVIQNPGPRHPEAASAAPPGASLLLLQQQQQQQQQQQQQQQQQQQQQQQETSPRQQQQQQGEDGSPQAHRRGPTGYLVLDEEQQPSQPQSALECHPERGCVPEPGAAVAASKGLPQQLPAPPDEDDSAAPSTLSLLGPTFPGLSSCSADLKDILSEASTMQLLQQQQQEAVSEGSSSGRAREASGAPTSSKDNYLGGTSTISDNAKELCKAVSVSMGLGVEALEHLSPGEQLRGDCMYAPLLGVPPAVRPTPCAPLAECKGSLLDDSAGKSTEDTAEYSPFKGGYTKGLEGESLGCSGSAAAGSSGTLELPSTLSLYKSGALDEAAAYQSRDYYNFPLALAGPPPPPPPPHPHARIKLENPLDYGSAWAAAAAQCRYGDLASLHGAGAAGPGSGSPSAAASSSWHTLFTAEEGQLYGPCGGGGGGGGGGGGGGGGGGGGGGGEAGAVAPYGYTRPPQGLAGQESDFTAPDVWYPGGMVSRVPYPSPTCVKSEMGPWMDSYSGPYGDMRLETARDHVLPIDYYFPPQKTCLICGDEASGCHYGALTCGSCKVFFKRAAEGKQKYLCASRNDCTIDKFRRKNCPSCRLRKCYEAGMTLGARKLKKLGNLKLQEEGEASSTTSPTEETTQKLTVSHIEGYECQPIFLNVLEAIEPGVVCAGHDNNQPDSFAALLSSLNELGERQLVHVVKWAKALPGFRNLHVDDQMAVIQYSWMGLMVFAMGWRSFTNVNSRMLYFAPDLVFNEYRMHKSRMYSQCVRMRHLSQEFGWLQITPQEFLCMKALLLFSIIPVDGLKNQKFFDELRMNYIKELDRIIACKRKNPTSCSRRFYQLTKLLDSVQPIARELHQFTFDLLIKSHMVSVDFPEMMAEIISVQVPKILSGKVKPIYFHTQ
Briefly: Androgen Receptor ELISA assay (PathScan AR ELISA) in VCaP cells: AR degradation, Dmax and DC50. The settings on record: Table 36; for DC50: read-out: VCaP DC50; for Dmax: VCaP. Type of test: cell-based. The gist of the method:
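VCaP cells, 30,000/well, grown ≥3 days in phenol red-free RPMI with 5% charcoal-stripped FBS; compound added in 0.1% DMSO with 0.1 nM R1881, 7 half-log doses, 24 h. Lysate AR quantified by PathScan sandwich ELISA, HRP/TMB read at 450 nm, giving DC50 and Dmax.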
On the technique in general: ELISA stands for enzyme-linked immunosorbent assay.

Setting [1] is: VCaP cells, read-out: VCaP Dmax (%).
Setting [2] is: read-out: VCaP Dmax (%), VCaP cells.

Turning to `Cc1ncsc1-c1ccc([C@H](C)NC(=O)[C@@H]2C[C@@H](O)CN2C(=O)[C@@H](c2cc(N3CCN(CCCc4ccc(C(=O)N[C@H]5C(C)(C)[C@H](Oc6ccc(C#N)c(Cl)c6)C5(C)C)cc4)CC3)no2)C(C)C)cc1` [Example 797, (2S,4R)-1-((R)-2-(3-(4-(3-(4-(((1r,3r)-3-(3-chloro-4-cyanophenoxy)-2,2,4,4-tetramethylcyclobutyl)carbamoyl)phenyl)propyl)piperazin-1-yl)isoxazol-5-yl)-3-methylbutanoyl)-4-hydroxy-N-((S)-1-(4-(4-methylthiazol-5-yl)phenyl)ethyl)pyrrolidine-2-carboxamide], under “VCaP cells”, the DC50 is below 50 nM. Further, the Dmax under setting [1] fell in the range of 51 to 70%.

`Cc1ncsc1-c1ccc([C@H](C)NC(=O)[C@@H]2C[C@@H](O)CN2C(=O)[C@@H](NC(=O)CCCCN2C[C@H]3C[C@@H]2CN3c2ccc(C(=O)N[C@H]3C[C@H](Oc4ccc(C#N)c(Cl)c4)C3)cn2)C(C)(C)C)cc1` [Example 798, N-((1r,3R)-3-(3-chloro-4-cyanophenoxy)cyclobutyl)-6-((1R,4R)-5-(5-(((S)-1-((2S,4R)-4-hydroxy-2-(((S)-1-(4-(4-methylthiazol-5-yl)phenyl)ethyl)carbamoyl)pyrrolidin-1-yl)-3,3-dimethyl-1-oxobutan-2-yl)amino)-5-oxopentyl)-2,5-diazabicyclo[2.2.1]heptan-2-yl)nicotinamide]: the DC50 (VCaP cells) was above 501 nM. Besides, the Dmax under setting [1] was below 25%.

Consider `Cc1ncsc1-c1ccc([C@H](C)NC(=O)C2C[C@@H](O)CN2C(=O)C(NC(=O)CCC(F)(F)CN2CCN(c3ccc(C(=O)N[C@H]4C(C)(C)[C@H](Oc5ccc(C#N)c(Cl)c5)C4(C)C)cn3)CC2)C(C)(C)C)cc1` (stereo partly drawn) [Example 799, N-((1r,3r)-3-(3-chloro-4-cyanophenoxy)-2,2,4,4-tetramethylcyclobutyl)-6-(4-(2,2-difluoro-5-(((S)-1-((2S,4R)-4-hydroxy-2-(((S)-1-(4-(4-methylthiazol-5-yl)phenyl)ethyl)carbamoyl)pyrrolidin-1-yl)-3,3-dimethyl-1-oxobutan-2-yl)amino)-5-oxopentyl)piperazin-1-yl)nicotinamide], for which the DC50 (VCaP cells) was below 50 nM. The greatest degradation seen (Dmax) under setting [1] lay in the range of 51 to 70%.

With `Cc1ncsc1-c1ccc(C(CO)NC(=O)[C@@H]2C[C@@H](O)CN2C(=O)[C@@H](NC(=O)CCC(F)(F)CN2CCN(c3ccc(C(=O)N[C@H]4C(C)(C)[C@H](Oc5ccc(C#N)c(Cl)c5)C4(C)C)cn3)CC2)C(C)(C)C)cc1` (stereo partly drawn) [Example 800, N-((1r,3r)-3-(3-chloro-4-cyanophenoxy)-2,2,4,4-tetramethylcyclobutyl)-6-(4-(2,2-difluoro-5-(((S)-1-((2S,4R)-4-hydroxy-2-(((R)-2-hydroxy-1-(4-(4-methylthiazol-5-yl)phenyl)ethyl)carbamoyl)pyrrolidin-1-yl)-3,3-dimethyl-1-oxobutan-2-yl)amino)-5-oxopentyl)piperazin-1-yl)nicotinamide], the DC50 (VCaP cells) was below 50 nM. Further, the Dmax under setting [1] was above 71%.

As to `Cc1ncsc1-c1ccc([C@H](C)NC(=O)C2C[C@@H](O)CN2C(=O)[C@@H](NC(=O)CN2C[C@@H]3C[C@H]2CN3CCCc2ccc(C(=O)N[C@H]3C(C)(C)[C@H](Oc4ccc(C#N)c(Cl)c4)C3(C)C)cc2)C(C)(C)C)cc1` (stereo partly drawn) [Example 801, (2S,4R)-1-((S)-2-(2-((1S,4S)-5-(3-(4-(((1r,3S)-3-(3-chloro-4-cyanophenoxy)-2,2,4,4-tetramethylcyclobutyl)carbamoyl)phenyl)propyl)-2,5-diazabicyclo[2.2.1]heptan-2-yl)acetamido)-3,3-dimethylbutanoyl)-4-hydroxy-N-((S)-1-(4-(4-methylthiazol-5-yl)phenyl)ethyl)pyrrolidine-2-carboxamide], the DC50 (VCaP cells) is below 50 nM. Besides, the greatest degradation seen (Dmax) under setting [1] was 51 to 70%.

Consider `Cc1ncsc1-c1ccc([C@H](C)NC(=O)[C@@H]2C[C@@H](O)CN2C(=O)[C@@H](NC(=O)CN2C3CCC2CN(CCCc2ccc(C(=O)NC4C(C)(C)C(Oc5ccc(C#N)c(Cl)c5)C4(C)C)cc2)C3)C(C)(C)C)cc1` (stereo partly drawn) [Example 802, (2S,4R)-1-((2S)-2-(2-(3-(3-(4-(((1r,3r)-3-(3-chloro-4-cyanophenoxy)-2,2,4,4-tetramethylcyclobutyl)carbamoyl)phenyl)propyl)-3,8-diazabicyclo[3.2.1]octan-8-yl)acetamido)-3,3-dimethylbutanoyl)-4-hydroxy-N-((S)-1-(4-(4-methylthiazol-5-yl)phenyl)ethyl)pyrrolidine-2-carboxamide], for which, where the note is “VCaP cells”, the “VCaP Dmax (%)” value was “+++ (51% ≤ Dmax ≤ 70%)” and the DC50 was below 50 nM.

Regarding `Cc1ncsc1-c1ccc([C@H](C)NC(=O)C2C[C@@H](O)CN2C(=O)[C@@H](NC(=O)CCCC2(N3CCN(c4ccc(C(=O)N[C@H]5C(C)(C)[C@H](Oc6ccc(C#N)c(Cl)c6)C5(C)C)cn4)CC3)COC2)C(C)(C)C)cc1` (stereo partly drawn) [Example 803, N-((1r,3r)-3-(3-chloro-4-cyanophenoxy)-2,2,4,4-tetramethylcyclobutyl)-6-(4-(3-(4-(((S)-1-((2S,4R)-4-hydroxy-2-(((S)-1-(4-(4-methylthiazol-5-yl)phenyl)ethyl)carbamoyl)pyrrolidin-1-yl)-3,3-dimethyl-1-oxobutan-2-yl)amino)-4-oxobutyl)oxetan-3-yl)piperazin-1-yl)nicotinamide], the DC50 (VCaP cells) was above 501 nM. Further, the Dmax under setting [1] lay within 26 to 50%.

With `Cc1ncsc1-c1ccc([C@H](C)NC(=O)[C@@H]2C[C@@H](O)CN2C(=O)[C@@H](NC(=O)CN2CCN(CCCCN3CCN(c4ccc(C(=O)N[C@H]5C(C)(C)[C@H](Oc6ccc(C#N)c(Cl)c6)C5(C)C)cn4)CC3)CC2)C(C)(C)C)cc1` [Example 804, N-((1r,3r)-3-(3-chloro-4-cyanophenoxy)-2,2,4,4-tetramethylcyclobutyl)-6-(4-(4-(4-(2-(((S)-1-((2S,4R)-4-hydroxy-2-(((S)-1-(4-(4-methylthiazol-5-yl)phenyl)ethyl)carbamoyl)pyrrolidin-1-yl)-3,3-dimethyl-1-oxobutan-2-yl)amino)-2-oxoethyl)piperazin-1-yl)butyl)piperazin-1-yl)nicotinamide], the DC50 (VCaP cells) was below 50 nM. Besides, the Dmax under setting [2] fell in the range of 51 to 70%.

For the molecule `Cc1ncsc1-c1ccc([C@H](C)NC(=O)[C@@H]2C[C@@H](O)CN2C(=O)[C@@H](NC(=O)CN2CCN(CCOCCN3CCN(c4ccc(C(=O)N[C@H]5C(C)(C)[C@H](Oc6ccc(C#N)c(Cl)c6)C5(C)C)cn4)CC3)CC2)C(C)(C)C)cc1` [Example 805, N-((1r,3r)-3-(3-chloro-4-cyanophenoxy)-2,2,4,4-tetramethylcyclobutyl)-6-(4-(2-(2-(4-(2-(((S)-1-((2S,4R)-4-hydroxy-2-(((S)-1-(4-(4-methylthiazol-5-yl)phenyl)ethyl)carbamoyl)pyrrolidin-1-yl)-3,3-dimethyl-1-oxobutan-2-yl)amino)-2-oxoethyl)piperazin-1-yl)ethoxy)ethyl)piperazin-1-yl)nicotinamide], the DC50 (VCaP cells) is above 501 nM. The maximal degradation (Dmax) under setting [2] was below 25%.

With `Cc1ncsc1-c1ccc([C@H](C)NC(=O)C2C[C@@H](O)CN2C(=O)C(NC(=O)CN2CCN(CCCCc3ccc(C(=O)N[C@H]4C(C)(C)[C@H](Oc5ccc(C#N)c(Cl)c5)C4(C)C)cc3)CC2)C(C)(C)C)cc1` (stereo partly drawn) [Example 806, (2S,4R)-1-((S)-2-(2-(4-(4-(4-(((1r,3r)-3-(3-chloro-4-cyanophenoxy)-2,2,4,4-tetramethylcyclobutyl)carbamoyl)phenyl)butyl)piperazin-1-yl)acetamido)-3,3-dimethylbutanoyl)-4-hydroxy-N-((S)-1-(4-(4-methylthiazol-5-yl)phenyl)ethyl)pyrrolidine-2-carboxamide], where the note is “VCaP cells”, the 50% degradation concentration (DC50) is below 50 nM. The Dmax under setting [1] was above 71%.

As to `Cc1ncsc1-c1ccc([C@H](C)NC(=O)C2C[C@@H](O)CN2C(=O)[C@@H](NC(=O)CN2C[C@@H]3C[C@H]2CN3CCCc2ccc(C(=O)N[C@H]3C(C)(C)[C@H](Oc4ccc(C#N)c(Cl)c4)C3(C)C)cc2)C(C)(C)C)cc1` (stereo partly drawn) [Example 807, (2S,4R)-1-((S)-2-(2-((1R,4R)-5-(3-(4-(((1r,3R)-3-(3-chloro-4-cyanophenoxy)-2,2,4,4-tetramethylcyclobutyl)carbamoyl)phenyl)propyl)-2,5-diazabicyclo[2.2.1]heptan-2-yl)acetamido)-3,3-dimethylbutanoyl)-4-hydroxy-N-((S)-1-(4-(4-methylthiazol-5-yl)phenyl)ethyl)pyrrolidine-2-carboxamide], where the note is “VCaP cells”, the 50% degradation concentration (DC50) is below 50 nM.

Source of the values: US11427548B2 (Arvinas Operations, Inc., priority 2015, dated 2022).
